Laboratory results taken from patent EP4603105A1, “PHARMACEUTICAL COMPOSITION CONTAINING CYCLIC COMPOUND HAVING SELECTIVE KRAS INHIBITORY EFFECT AGAINST HRAS AND NRAS” (CHUGAI SEIYAKU KABUSHIKI KAISHA, priority 2022, dated 2024).
Read-outs that look alike come from different tables or passages of the source. *1 amine or outer side, *2 acyl side, *3 side chain or, on linkers, in order; H or OH if unused. Where a SMILES comes first, the peptide text is derived from it. Bridges are numbered along the chain shown (N, C = ends). [ ]: non-standard residue; d: D form. The star is where a group is joined. hPhe(3,5-F2-4-CF3) = N[C@@H](CCc1cc(F)c(C(F)(F)F)c(F)c1)C(=O)O; hPhe(3-Cl-4-CF3) = N[C@@H](CCc1ccc(C(F)(F)F)c(Cl)c1)C(=O)O; X34 = COCCN([C@@H](Cc1ccc(C(F)(F)F)cc1)C(=O)[*:2])[*:1]; NPrPhe(4-CF3) = CCCN[C@@H](Cc1ccc(C(F)(F)F)cc1)C(=O)O; NMeAbu(4,4,4-F3) = CN[C@@H](CC(F)(F)F)C(=O)O; NMeGly(cPent) = CN[C@H](C(=O)O)C1CCCC1; Pro(4,4-F2) = O=C(O)[C@@H]1CC(F)(F)CN1; Hyp = O=C(O)[C@@H]1C[C@@H](O)CN1; NMeD = CN[C@@H](CC(=O)O)C(=O)O; NMeL = CN[C@@H](CC(C)C)C(=O)O; Morpholide = C1CN(*)CCO1; Ac5c = NC1(C(=O)O)CCCC1; Aze = O=C(O)[C@@H]1CCN1; Ac4c = NC1(C(=O)O)CCC1; NEtG = CCNCC(=O)O; Sar = CNCC(=O)O

Experiments:
[1] = system: human lung cancer strain NCI-H441; assay type: cell-based
Procedure, shortened: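 Readout: […] after the ATP-based reagent. Compound: serial dilutions in dimethyl sulfoxide.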

HRAS wild-type protein = HRAS wild-type protein (Homo sapiens, UniProt P01112); experiment: Binding to HRAS by surface plasmon resonance (SPR), KD and KD ratio to KRAS
Procedure, shortened: (§1)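 Affinity is measured by surface plasmon resonance at 30°C against captured, GDP-loaded RAS carrying a biotinylated Avi tag. Compounds are titrated by single-cycle kinetics, and KD comes from a 1:1 fit.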

[2] = target: GDP-bound NRAS wild-type protein (Homo sapiens, UniProt P01111); experiment: Binding to NRAS by surface plasmon resonance (SPR), KD and KD ratio to KRAS
Procedure, shortened: as §1

[3] = ratio of KD for HRAS wild-type protein to KD for KRAS
[4] = ratio of KD for GDP-bound NRAS wild-type protein to KD for KRAS
[5] = ratio of the KD value with respect to HRAS wild-type protein to the KD value with respect to KRAS
[6] = ratio of the KD value with respect to GDP-bound NRAS wild-type protein to the KD value with respect to KRAS

Sequence of HRAS wild-type protein (P01112 whole entry): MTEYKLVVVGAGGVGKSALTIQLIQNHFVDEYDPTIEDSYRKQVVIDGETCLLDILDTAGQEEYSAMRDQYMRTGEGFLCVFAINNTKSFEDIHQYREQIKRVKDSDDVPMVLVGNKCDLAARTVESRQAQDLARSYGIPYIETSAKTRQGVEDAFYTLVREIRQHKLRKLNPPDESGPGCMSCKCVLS
Sequence of GDP-bound NRAS wild-type protein (P01111 whole entry): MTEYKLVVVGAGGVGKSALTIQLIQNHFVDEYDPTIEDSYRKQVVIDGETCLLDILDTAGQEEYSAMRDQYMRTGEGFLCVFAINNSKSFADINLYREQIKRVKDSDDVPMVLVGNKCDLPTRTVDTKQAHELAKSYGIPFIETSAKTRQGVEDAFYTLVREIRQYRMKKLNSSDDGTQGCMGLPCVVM

CCC[C@H]1C(=O)N[C@@H]([C@@H](C)CC)C(=O)N(C2CC2)CC(=O)N(C)[C@H]2C/C=C\CCN(C2=O)[C@@H](Cc2ccc(C(F)(F)F)cc2)C(=O)N(C)CC(=O)N[C@@H](CCc2ccc(Cl)c(Cl)c2)C(=O)N2C[C@H](OCC)C[C@H]2C(=O)NC2(CC(C)(C)C2)C(=O)N(C)[C@@H](CC2CCC2)C(=O)N(C)[C@H](C(=O)N(C)C)CC(=O)N1C [PP2819]
IC50 [1]: 102 nM
HRAS /KRAS (HRAS wild-type protein; [3]): A (a compound having 10 or more and less than 20 is denoted as A)
NRAS /KRAS [2, 4]: A (a compound having 10 or more and less than 20 is denoted as A)

CCOC[C@H]1C(=O)N[C@@H]([C@@H](C)CC)C(=O)N(C)CC(=O)N(C)[C@H]2C/C=C\CCN(C2=O)[C@@H](Cc2ccc(C(F)(F)F)cc2)C(=O)N(C)CC(=O)N[C@@H](CCc2cc(F)c(C(F)(F)F)c(F)c2)C(=O)N2C[C@H](OCC)C[C@H]2C(=O)NC2(CC(C)(C)C2)C(=O)N(C)[C@@H](C2CCCC2)C(=O)N(C)[C@H](C(=O)N(C)CC)CC(=O)N1C [PP2032]
IC50 [1]: 8.1 nM
HRAS /KRAS (HRAS wild-type protein; [5]): B (a compound having 3 or more and less than 10 is denoted as B)
NRAS /KRAS [2, 6]: A (a compound having 10 or more and less than 20 is denoted as A)

CCC[C@H]1C(=O)N[C@@H]([C@@H](C)CC)C(=O)N(C)CC(=O)N(C)[C@H]2C/C=C\CCN(C2=O)[C@@H](Cc2ccc(C(F)(F)F)cc2)C(=O)N(C)CC(=O)N[C@@H](CCc2cc(C)c(C(F)F)c(Cl)c2)C(=O)N2C[C@H](OCC)C[C@H]2C(=O)NC2(CC(C)(C)C2)C(=O)N(C)[C@@H](C2CCCC2)C(=O)N(C)[C@H](C(=O)N(C)C)CC(=O)N1C [PP2866]
IC50 ([1]; NCI-H441 cells, 4 days, CellTiter-Glo, read-out: NCl-H441 IC50): 39.6 nM
HRAS /KRAS (HRAS wild-type protein; [3]): A (a compound having 10 or more and less than 20 is denoted as A)
NRAS /KRAS [2, 4]: A (a compound having 10 or more and less than 20 is denoted as A)

CCCN1C(=O)CN(C)C(=O)CN(CC)C(=O)[C@H]([C@@H](C)CC)NC(=O)[C@H](CC(C)C)N(C)C(=O)C[C@@H](C(=O)N(C)C)N(C)C(=O)[C@H](C2CCCC2)N(C)C(=O)C2(CCCC2)NC(=O)[C@@H]2C[C@@H](OCC)CN2C(=O)[C@H](CCc2ccc(C(F)(F)F)c(Cl)c2)NC(=O)CN(C)C(=O)[C@@H]1Cc1ccc(C(F)(F)F)cc1 [PP0427] ([NMeL]I[NEtG][Sar][NPrPhe(4-CF3)][Sar][hPhe(3-Cl-4-CF3)][Hyp](Et)[Ac5c][NMeGly(cPent)][NMeD]-NMe2; lactam N-11)
IC50 [1]: 2.2 nM
HRAS /KRAS (HRAS wild-type protein; [5]): C (A compound having a KD ratio of 0.1 or more and less than 3 is denoted as C)
NRAS /KRAS [2, 6]: B (a compound having 3 or more and less than 10 is denoted as B)

CC[C@H](C)[C@@H]1NC(=O)[C@H](CC(C)C)N(C)C(=O)C[C@@H](C(=O)N2CCOCC2)N(C)C(=O)[C@H](C2CCCC2)N(C)C(=O)C2(CCCC2)NC(=O)[C@@H]2CCCN2C(=O)[C@H](CCc2ccc(C(F)(F)F)c(Cl)c2)NC(=O)CN(C)C(=O)[C@H](Cc2ccc(C(F)(F)F)cc2)N(CCOC)C(=O)CN(C)C(=O)CN(C)C1=O [PP0132] ([NMeL]I[Sar][Sar][X34][Sar][hPhe(3-Cl-4-CF3)]P[Ac5c][NMeGly(cPent)][NMeD]-Morpholide; lactam N-11)
IC50 [1]: 14.8 nM
HRAS /KRAS (HRAS wild-type protein; [3]): C (A compound having a KD ratio of 0.1 or more and less than 3 is denoted as C)
NRAS /KRAS [2, 4]: C (A compound having a KD ratio of 0.1 or more and less than 3 is denoted as C)

CCCN1C(=O)CN(C)C(=O)CNC(=O)[C@H]([C@@H](C)CC)NC(=O)[C@H](CC(C)C)N(C)C(=O)C[C@@H](C(=O)N2CCOCC2)NC(=O)[C@H](C2CCCC2)N(C)C(=O)C2(CCC2)NC(=O)[C@@H]2C[C@@H](OCC)CN2C(=O)[C@H](CCc2ccc(C(F)(F)F)c(Cl)c2)NC(=O)CN(C)C(=O)[C@@H]1Cc1ccc(C(F)(F)F)cc1 [PP0330] ([NMeL]IG[Sar][NPrPhe(4-CF3)][Sar][hPhe(3-Cl-4-CF3)][Hyp](Et)[Ac4c][NMeGly(cPent)]D-Morpholide; lactam N-11)
IC50 [1]: 98.2 nM
HRAS /KRAS (HRAS wild-type protein; [3]): C (A compound having a KD ratio of 0.1 or more and less than 3 is denoted as C)
NRAS /KRAS [2, 4]: B (a compound having 3 or more and less than 10 is denoted as B)

CCO[C@@H]1C[C@H]2C(=O)NC3(CCC3)C(=O)N(C)[C@@H](C3CCCC3)C(=O)N(C)[C@H](C(=O)N(C)CCOC)CC(=O)N(C)[C@@H](C)C(=O)N[C@@H]([C@@H](C)CC)C(=O)N(C)CC(=O)N(C)[C@H]3C/C=C\CCN(C3=O)[C@@H](Cc3ccc(C(F)(F)F)cc3)C(=O)N(C)CC(=O)N[C@@H](CCc3cc(F)c(C(F)(F)F)c(F)c3)C(=O)N2C1 [PP1319]
IC50 [1]: 57.5 nM
HRAS /KRAS (HRAS wild-type protein; ratio of KD with respect to HRAS wild-type protein to KD with respect to KRAS): B (a compound having 3 or more and less than 10 is denoted as B)
NRAS /KRAS ([2]; ratio of KD with respect to GDP-bound NRAS wild-type protein to KD with respect to KRAS): A (a compound having 10 or more and less than 20 is denoted as A)

CCCN1C(=O)CN(C)C(=O)CNC(=O)[C@H]([C@@H](C)CC)NC(=O)[C@H](CC(C)C)N(C)C(=O)C[C@@H](C(=O)N2CCOCC2)N(C)C(=O)[C@H](C2CCCC2)N(C)C(=O)C2(CCC2)NC(=O)[C@@H]2CC(F)(F)CN2C(=O)[C@H](CCc2ccc(C(F)(F)F)c(Cl)c2)NC(=O)CN(C)C(=O)[C@@H]1Cc1ccc(C(F)(F)F)cc1 [PP0395] ([NMeL]IG[Sar][NPrPhe(4-CF3)][Sar][hPhe(3-Cl-4-CF3)][Pro(4,4-F2)][Ac4c][NMeGly(cPent)][NMeD]-Morpholide; lactam N-11)
IC50 [1]: 0.8 nM
HRAS /KRAS (HRAS wild-type protein; [5]): C (A compound having a KD ratio of 0.1 or more and less than 3 is denoted as C)
NRAS /KRAS [2, 6]: B (a compound having 3 or more and less than 10 is denoted as B)

CCCN1C(=O)[C@@H]2CCN2C(=O)CN(C)C(=O)[C@H]([C@@H](C)CC)NC(=O)[C@H](CC(C)C)N(C)C(=O)C[C@@H](C(=O)N2CCOCC2)N(C)C(=O)[C@H](CC(F)(F)F)N(C)C(=O)C2(CCCC2)NC(=O)[C@@H]2CCCN2C(=O)[C@H](CCc2cc(F)c(C(F)(F)F)c(F)c2)NC(=O)CN(C)C(=O)[C@@H]1Cc1ccc(C(F)(F)F)cc1 [PP0803] ([NMeL]I[Sar][Aze][NPrPhe(4-CF3)][Sar][hPhe(3,5-F2-4-CF3)]P[Ac5c][NMeAbu(4,4,4-F3)][NMeD]-Morpholide; lactam N-11)
IC50 [1]: 52.5 nM
HRAS /KRAS (HRAS wild-type protein; [3]): B (a compound having 3 or more and less than 10 is denoted as B)
NRAS /KRAS [2, 4]: C (A compound having a KD ratio of 0.1 or more and less than 3 is denoted as C)

CC[C@H](C)[C@@H]1NC(=O)[C@H](CC(C)C)N(C)C(=O)C[C@@H](C(=O)N2CCOCC2)N(C)C(=O)[C@H](C2CCCCC2)N(C)C(=O)C2(CCCC2)NC(=O)[C@@H]2CCCN2C(=O)[C@H](CCc2cc(F)c(C(F)(F)F)c(F)c2)NC(=O)CN(C)C(=O)[C@H](Cc2ccc(C(F)(F)F)cc2)N2CCCCC[C@@H](C2=O)N(C)C(=O)CN(C)C1=O [PP0505]
IC50 [1]: 210 nM
HRAS /KRAS (HRAS wild-type protein; [5]): B (a compound having 3 or more and less than 10 is denoted as B)
NRAS /KRAS [2, 6]: B (a compound having 3 or more and less than 10 is denoted as B)

CC[C@H](C)[C@@H]1NC(=O)[C@H](C(C)C)N(C)C(=O)C[C@@H](C(=O)N(C)CC)N(C)C(=O)[C@H](C2CCCC2)N(C)C(=O)C2(CCC2)NC(=O)[C@@H]2C[C@H](C)CN2C(=O)[C@H](CCc2ccc(C(F)(F)F)c(OC)c2)NC(=O)CN(C)C(=O)[C@H](Cc2ccc(C(F)(F)F)cc2)N2CC/C=C\C[C@@H](C2=O)N(C)C(=O)CN(C)C1=O [PP2065]
IC50 [1]: 17 nM
HRAS /KRAS (HRAS wild-type protein; [5]): B (a compound having 3 or more and less than 10 is denoted as B)
NRAS /KRAS [2, 6]: A (a compound having 10 or more and less than 20 is denoted as A)

CCO[C@@H]1C[C@H]2C(=O)NC3(CCC3)C(=O)N(C)[C@@H](C3CCCC3)C(=O)N(C)[C@H](C(=O)N(C)C)CC(=O)N(C)[C@@H](CC)C(=O)N[C@@H]([C@@H](C)CC)C(=O)N(C)CC(=O)N(C)[C@H]3C[C@H]4C[C@H]4CN(C3=O)[C@@H](Cc3ccc(C(F)(F)F)cc3)C(=O)N(C)CC(=O)N[C@@H](CCc3cc(F)c(C(F)(F)F)c(F)c3)C(=O)N2C1 [PP0830]
IC50 [1]: 3.4 nM
HRAS /KRAS (HRAS wild-type protein; [3]): C (A compound having a KD ratio of 0.1 or more and less than 3 is denoted as C)
NRAS /KRAS [2, 4]: C (A compound having a KD ratio of 0.1 or more and less than 3 is denoted as C)

CCC[C@H]1C(=O)N[C@@H]([C@@H](C)CC)C(=O)N(C)CC(=O)N(C)[C@H]2C/C=C\CCN(C2=O)[C@@H](Cc2ccc(C(F)(F)F)cc2)C(=O)N(C)CC(=O)N[C@@H](CCc2cc(F)c(C(F)(F)F)c(F)c2)C(=O)N2C[C@H](OCC)C[C@H]2C(=O)N(C)C2(CCC2)C(=O)N(C)[C@@H](C2CCCC2)C(=O)N(C)[C@H](C(=O)N2CCCCC2)CC(=O)N1C [PP3118]
IC50 [1]: 6.7 nM
HRAS /KRAS (HRAS wild-type protein; [3]): B (a compound having 3 or more and less than 10 is denoted as B)
NRAS /KRAS [2, 4]: A (a compound having 10 or more and less than 20 is denoted as A)
